Reference: patent US9120789B2, “1-(5-tert-butyl-2-phenyl-2H-pyrazol-3-yl)-3-[2-fluoro-4-(1-methyl-2-oxo-2,3-dihydro-1H-imidazo[4,5-b]pyridin-7-yloxy)-phenyl]-urea and related compounds and their use in therapy” (CANCER RESEARCH TECHNOLOGY LIMITED, priority 2010, dated 2015)

Key:
B-RAF = B-RAF (Homo sapiens, UniProt P15056); assay: Assay A - DELFIA kinase assay; type: biochemical; settings: 100 μM ATP; mean of usually three assays; read-out: Assay A BRAF IC50
Protocol: Biological Methods—Assay A—DELFIA Kinase Assay
Compounds were assessed by a kinase assay performed according to the following protocol.
The following reagents were prepared:
DELFIA Kinase Buffer (DKB):
DKB1 (DKB with B-RAF and MEK Protein):
Combine 4950 μL of DKB and 50 μL of 2.5 mg/mL GST-MEK stock (to give 1 mg of MEK per 40 μL). Then add 22.5 μL of B-RAF to give ˜0.2 μL of B-RAF per 40 μL.
DKB2 (DKB with MEK Protein):
Combine 4950 μL of DKB and 50 μL of 2.5 mg/mL GST-MEK stock (to give […] of MEK per 40 μL). Use 500 μL of this for the blow out (BO) and the empty vector (EV) control.
100 mM stock, dilute to 500 μM to give 100 μM final concentration in assay.
Inhibitors (Test Compounds):
Phospho-MEK1/2 CST #9121S diluted 1:1000 in DELFIA assay buffer (AB). Pre-incubate antibody in the AB for 30 minutes at room temperature prior to use.
Anti-rabbit-Eur labelled secondary Perkin Elmer #AD0105 diluted 1:1000 in DELFIA assay buffer (AB). Pre-incubate antibody in the AB for 30 minutes at room temperature prior to use. (Primary and secondary antibodies were incubated together.)
DELFIA assay buffer Perkin Elmer #4002-0010.
DELFIA enhancement solution Perkin Elmer #4001-0010.
96 well glutathione-coated black plate Perbio #15340.
1. Preblock wells with 5% milk in TBS for 1 hour.
2. Wash wells 3× with 200 μL TBS.
3. Plate out 40 μL of DKB1 for all inhibitors (test compounds), DMSO control, and optionally other control compounds.
4. Plate out 40 μL of DKB2 for BO and EV wells.
5. Add inhibitors (test compounds) at 0.5 μL per well according to desired plate layout.
6. Add 0.5 μL DMSO to vehicle control wells.
7. Add 2 μL of B-RAF to BO and EV wells.
8. Pre-incubate with inhibitors (test compounds) for 10 minutes at room temperature with shaking.
9. Add 10 μL of 500 μM ATP stock, in DKB, to give 100 μM assay concentration.
10. Seal plates with TopSeal and incubate at room temperature with shaking for 45 minutes.
11. Wash plates 3× with 200 μL 0.1% Tween20/Water to terminate reaction.
12. Add 50 μL per well of antibody mix and incubate for 1 hour at room temperature with shaking.
13. Wash plates 3× with 200 μL 0.1% Tween20/Water.
14. Add 100 μL DELFIA enhancement solution per well, cover in foil, and incubate at room temperature for 30 minutes with shaking.
15. Read on Victor using Europium protocol.
(§1) Values for the blank (Empty Vector) are subtracted from all values. The DMSO controls are set as 100% activity and assay points (the response) are calculated as a percentage of the DMSO control. Data are plotted using Graphpad Prism software and a non-linear regression line is calculated using a variable slope sigmoidal dose-response equation: Y=Bottom+[Top−Bottom]/[1+10^((Log EC50−X)*HillSlope)] where X is the logarithm of concentration and Y is the response. The IC50 generated by this procedure is the concentration of the drug that produces a percentage control fluorescence value midway between the saturation, and zero-effect plateaus. Three independent assays are usually performed and the mean IC50 is reported. Biological Methods—Assay B—Cell Based Phosho-ERK Assay

[1] = tested on: WM266.4 melanoma cell line (mutant BRAF); assay: Assay C - SRB cell proliferation assay, WM266.4; type: cell-based; settings: Homo sapiens, WM 266-4, 120 h; WM266.4, 5 days growth
Protocol: as §1, with “blank (no cells)” for “blank (Empty Vector)”, “the response).” for “the response.”, “Methods—Assay C—SRB Cell Proliferation” for “Methods—Assay B—Cell Based Phosho-ERK”, “Assay (SRB GI50)” for “Assay”
Cell lines (e.g., WM266.4 and A375M melanoma cell lines; SW620 colorectal carcinoma cell line) are routinely cultured in DMEM or RPMI1640 supplemented with 10% foetal bovine serum, at 37° C., in 10% CO2 water saturated atmosphere. Cultures are maintained in exponential growth phase by sub-culturing before having become confluent (3-5 day intervals). Single cell suspensions are prepared by harvesting an 80 cm^2 tissue culture flask with 5 mL commercial trypsin EDTA. After 5 minutes, the detached cells are mixed with 5 mL fully complemented culture medium and centrifugally pelleted (1000 rpm for 7 minutes). After aspirating the supernatant, the cell pellet is re-suspended in 10 mL fresh medium and the cells fully disaggregated by drawing the whole volume up/down 5 times through a 19-gauge needle. The concentration of the cells is determined using a haemocytometer ( 1/10 dilution). A suitable volume to give at least a 2-fold excess for the number of tests being conducted, typically 100-200 mL, is prepared by diluting the cell suspension to 10,000-40,000/mL, and 100 μL/well dispensed into 96 well plates using a programmable 8-channel peristaltic pump, giving 1000-4000 cells/well, leaving column 12 blank. The plates are returned to the incubator for 24 hours to allow the cells to re-attach.
The compounds being tested are prepared at 10 mM in DMSO. Aliquots (24 μL) are diluted into 1.2 mL culture medium giving 200 μM, and 10 serial dilutions of 3× performed by transferring 80 μL to 160 μL. Aliquots (100 μL) of each dilution are added to the wells, using an 8-channel pipettor, thus performing a final further 2× dilution, and giving doses ranging from 100 μM to 0.005 μM. Column 11 receives plain culture medium only. Each compound is tested in quadruplicate, each replicate being the average of four wells.
After a further 5 days growth, the plates are emptied, and the cells are fixed in 10% trichloroacteic acid for 30 minutes at 4° C. After thorough rinsing in running tap water, the plates are dried, and stained by adding 50 μL of a solution of 0.1% sulphorhodamine-B in 1% acetic acid, for 10 minutes at room temperature. The stain is poured out and the plates thoroughly rinsed under a stream of 1% acetic acid, thus removing unbound stain, and dried. The bound stain is taken into solution by addition of 100 μL Tris buffer pH 8, followed by 10 minutes on a plate-shaker (approximately 500 rpm). The absorbance at 540 nm in each well (being proportional to the number of cells present) is determined using a plate reader.
After averaging the blank values in column 12 this was subtracted from all values, and results expressed as a percentage of the untreated value (column 11). […] The GI50 generated by this procedure is the concentration of the drug that produces a percentage control A540 midway between the saturation, and zero-effect plateaus.

Sequence of B-RAF (P15056 whole entry): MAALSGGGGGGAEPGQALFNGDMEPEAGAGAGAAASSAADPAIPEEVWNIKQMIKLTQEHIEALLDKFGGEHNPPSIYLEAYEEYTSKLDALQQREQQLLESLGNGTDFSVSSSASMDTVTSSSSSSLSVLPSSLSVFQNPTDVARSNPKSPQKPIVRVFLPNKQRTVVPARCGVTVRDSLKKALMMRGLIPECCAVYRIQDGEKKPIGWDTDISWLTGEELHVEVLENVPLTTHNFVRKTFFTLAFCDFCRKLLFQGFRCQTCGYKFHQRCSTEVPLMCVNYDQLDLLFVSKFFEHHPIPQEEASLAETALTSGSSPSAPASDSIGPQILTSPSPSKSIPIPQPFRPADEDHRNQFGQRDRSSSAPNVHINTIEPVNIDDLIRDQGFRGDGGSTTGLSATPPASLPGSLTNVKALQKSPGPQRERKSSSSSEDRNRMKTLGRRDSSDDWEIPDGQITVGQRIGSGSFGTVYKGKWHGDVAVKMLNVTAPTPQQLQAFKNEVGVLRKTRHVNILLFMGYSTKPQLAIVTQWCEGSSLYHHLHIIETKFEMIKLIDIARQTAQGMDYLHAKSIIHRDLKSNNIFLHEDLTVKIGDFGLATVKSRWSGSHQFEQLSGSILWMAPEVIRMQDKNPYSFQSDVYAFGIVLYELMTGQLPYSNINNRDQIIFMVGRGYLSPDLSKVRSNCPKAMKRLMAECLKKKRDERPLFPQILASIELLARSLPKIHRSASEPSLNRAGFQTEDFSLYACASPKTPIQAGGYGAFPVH

| IC50 (B-RAF) [nM] | GI50 [1] [nM] | SMILES |
| --- | --- | --- |
| 200 | 66 | Cc1ccc(-n2nc(C(C)(C)C)cc2NC(=O)Nc2ccc(Oc3ccnc4[nH]c(=O)n(C)c34)cc2)cc1 [XX-02, 1-(1-N-p-tolyl-3-tert-butyl-pyrazol-5-yl)-3-(4-(2-oxo-2,3-dihydro-1-N-methyl-1H-imidazo[4,5-b]pyridin-7-yl-oxy)phenyl)urea] |
| 250 | 8 | Cn1c(=O)[nH]c2nccc(Oc3ccc(NC(=O)Nc4cc(C(C)(C)C)nn4-c4ccccc4)c4ccccc34)c21 [BB-01, 1-(3-Tert-butyl-1-phenyl-1H-pyrazol-5-yl)-3-(4-(1-methyl-2-oxo-2,3-dihydro-1H-imidazo[4,5-b]pyridin-7-yloxy)naphthalen-1-yl)urea] |
| 94 | 390 | CC(C)(C)c1cc(NC(=O)Nc2ccc(Oc3ccnc4[nH]c(=O)[nH]c34)cc2)n(-c2ccccc2)n1 [XX-01, 1-(5-Tert-butyl-2-phenyl-2H-pyrazol-3-yl)-3-[4-(2-oxo-2,3-dihydro-1H-imidazo[4,5-b]pyridin-7-yloxy)-phenyl]-urea] |
| 270 | 52 | Cn1c(=O)[nH]c2nccc(Oc3ccc(NC(=O)Nc4cc(C(C)(C)C)nn4-c4ccccc4)c(F)c3)c21 [AA-01, 1-(3-Tert-butyl-1-phenyl-1H-pyrazol-5-yl)-3-(2-fluoro-4-(1-N-methyl-2-oxo-2,3-dihydro-1H-imidazo[4,5-b]pyridin-7-yloxy)phenyl)urea] |
| 240 | 20 | CC(C)(C)c1cc(NC(=O)Nc2ccc(Oc3ccnc4[nH]c(=O)[nH]c34)cc2)n(-c2ccc(F)cc2)n1 [XX-04, 1-[5-tert-Butyl-2-(4-fluoro-phenyl)-2H-pyrazol-3-yl]-3-[4-(2-oxo-2,3-dihydro-1H-imidazo[4,5-b]pyridin-7-yloxy)-phenyl]urea] |
| 1090 | 33 | Cn1c(=O)n(C)c2c(Oc3ccc(NC(=O)Nc4cc(C(C)(C)C)nn4-c4ccccc4)c(F)c3)ccnc21 [XX-03, 1-(3-Tert-butyl-1-phenyl-1H-pyrazol-5-yl)-3-(4-(1,3-dimethyl-2-oxo-2,3-dihydro-1H-imidazo[4,5-b]pyridin-7-yloxy)-2-fluorophenyl)urea] |
| 2280 | 16 | Cc1ccc(-n2nc(C(C)(C)C)cc2NC(=O)Nc2ccc(Oc3ccnc4[nH]c(=O)n(C)c34)c3ccccc23)cc1 [BB-02, 1-(1-N-p-tolyl-3-tert-butyl-pyrazol-5-yl)-3-(4-(2-oxo-2,3-dihydro-1-N-methyl-1H-imidazo[4,5-b]pyridin-7-yl-oxy)naphthalen-1-yl)urea] |
